Columns and labels:
[1] = background statement; cited from earlier work
SP1 = SP1 (Homo sapiens, UniProt P08047); settings: background statement; cited from earlier work
TBI patient = test: Treatment of a Traumatic Brain Injury (TBI) patient; type: in vivo; settings: compared to a non-treated patient
Description: A therapeutically effective amount of the TA analog 2-(2-cyanophenylthio) benzoic acid is administered to a TBI patient.

CTE patient = test: Treatment of a Chronic Traumatic Encephalopathy (CTE) patient; type: in vivo; settings: compared to a non-treated patient
Description: A therapeutically effective amount of the TA analog 2-(2-cyanophenylthio) benzoic acid is administered to a CTE patient.

[2] = test system: corticobasal degeneration patient; test: Treatment of a corticobasal degeneration patient; type: in vivo; settings: compared to a non-treated patient
Description: A therapeutically effective amount of the TA analog 2-(2-cyanophenylthio) benzoic acid is administered to a corticobasal degeneration patient.

bvFTLD patient = test: Treatment of a Behavioral Variant Frontotemporal Dementia (bvFTLD) patient; type: in vivo; settings: compared to a non-treated patient
Description: A therapeutically effective amount of the TA analog 2-(2-cyanophenylthio) benzoic acid is administered to a bvFTLD patient.

Down's Syndrome patient = test: Treatment of a Down's Syndrome patient; type: in vivo; settings: compared to a non-treated patient
Description: A therapeutically effective amount of the TA analog 2-(2-cyanophenylthio) benzoic acid is administered to a Down's Syndrome patient.

FTLD patient = test: Treatment of a Frontotemporal Lobar Degeneration (FTLD) patient; type: in vivo; settings: compared to a non-treated patient
Description: A therapeutically effective amount of the TA analog 2-(2-cyanophenylthio) benzoic acid is administered to an FTLD patient.

Pick disease patient = test: Treatment of a Pick disease patient; type: in vivo; settings: compared to a non-treated patient
Description: A therapeutically effective amount of the TA analog 2-(2-cyanophenylthio) benzoic acid is administered to a Pick disease patient.

PSP patient = test: Treatment of a Progressive Supranuclear Palsy (PSP) patient; type: in vivo; settings: compared to a non-treated patient
Description: A therapeutically effective amount of the TA analog 2-(2-cyanophenylthio) benzoic acid is administered to a PSP patient.

AD patient = test: Treatment of an AD patient; type: in vivo; settings: compared to a non-treated patient
Description: A therapeutically effective amount of the TA analog 2-(2-cyanophenylthio) benzoic acid is administered to an AD patient.

Chain of SP1 (P08047 whole entry): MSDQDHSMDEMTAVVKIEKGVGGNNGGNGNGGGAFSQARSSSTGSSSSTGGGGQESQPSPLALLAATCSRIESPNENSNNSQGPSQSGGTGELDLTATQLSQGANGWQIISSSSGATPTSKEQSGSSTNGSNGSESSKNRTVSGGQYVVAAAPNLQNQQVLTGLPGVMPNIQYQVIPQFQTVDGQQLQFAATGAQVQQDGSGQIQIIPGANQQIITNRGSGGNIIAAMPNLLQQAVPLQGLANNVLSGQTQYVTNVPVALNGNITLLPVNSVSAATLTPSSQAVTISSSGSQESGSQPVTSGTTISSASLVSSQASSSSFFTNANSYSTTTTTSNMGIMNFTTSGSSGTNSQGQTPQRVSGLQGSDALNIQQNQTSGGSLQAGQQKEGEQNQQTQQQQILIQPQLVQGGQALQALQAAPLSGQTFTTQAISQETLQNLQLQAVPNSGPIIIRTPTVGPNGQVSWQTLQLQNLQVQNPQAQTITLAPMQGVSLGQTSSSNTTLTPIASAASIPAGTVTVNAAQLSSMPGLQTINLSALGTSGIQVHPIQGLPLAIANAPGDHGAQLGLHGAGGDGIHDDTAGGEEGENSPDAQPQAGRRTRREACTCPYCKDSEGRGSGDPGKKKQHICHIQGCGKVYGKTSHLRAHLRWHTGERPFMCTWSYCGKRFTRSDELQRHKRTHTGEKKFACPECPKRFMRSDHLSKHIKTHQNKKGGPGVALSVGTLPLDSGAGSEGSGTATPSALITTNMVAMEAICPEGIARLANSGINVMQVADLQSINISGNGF

Cc1c(Cl)cccc1Nc1ccccc1C(=O)O [TA, Tolfenamic Acid]
ability to cross the blood brain barrier (BBB) [1]: cross the blood brain barrier
interaction with SP1 (SP1): interact directly with SP1

N#Cc1ccccc1Sc1ccccc1C(=O)O [2-(2-cyanophenylthio) benzoic acid, 2-(2-cyanophenylthio)benzoic acid]
patient's symptoms (TBI patient): symptoms are reduced
patient's symptoms (CTE patient): symptoms are reduced
patient's symptoms [2]: symptoms are reduced
patient's symptoms (bvFTLD patient): symptoms are reduced
patient's symptoms (Down's Syndrome patient): symptoms are reduced
patient's symptoms (FTLD patient): symptoms are reduced
patient's symptoms (Pick disease patient): symptoms are reduced
patient's symptoms (PSP patient): symptoms are reduced
patient's symptoms (AD patient): symptoms are reduced
